Results as given in patent US9611251B2, “Substituted piperidine compounds and their use as orexin receptor modulators” (Janssen Pharmaceutica NV, priority 2013, dated 2017).

Columns and labels:
human orexin 1 receptor = human orexin 1 receptor (Homo sapiens, UniProt O43613); test: Human orexin 1 receptor radioligand binding; conditions: human orexin 1 receptor radioligand binding; averages of 2-20 runs; read-out: hOX1 Ki
Procedure: The in vitro affinity of the compounds of the invention for the rat/human orexin 1 and human orexin 2 receptors was determined by competitive radioligand binding using [^3H](1-(5-(2-fluoro-phenyl)-2-methyl-thiazol-4-yl)-1-((S)-2-(5-phenyl-(1,3,4)oxadiazol-2-ylmethyl)-pyrrolidin-1-yl)-methanone) (Langmead et al., 2004) and [^3H]EMPA (n-ethyl-2[96-methoxypyridin-3-yl)-(toluene-2-sulfonyl)-amino]-N-pyridin-3-ylmethyl acetamide), respectively (Langmead et al., 2004, British Journal of Pharmacology 141:340-346; Malherbe et al., 2004, British Journal of Pharmacology 156:1326-41).
(§1) Data are analyzed using pc-Sandy macro and graphed on Graphpad Prism 5. For analysis, each concentration point is averaged from triplicate values and the averaged values are plotted on Graphpad Prism. The IC50 was determined by applying the following equation (GraphPad Prism 5.0, SanDiego) for one site competition where X=log (concentration) and Y=specific binding. Top denotes the total [^3H]-(1-(5-(2-fluoro-phenyl)-2-methyl-thiazol-4-yl)-1-((S)-2-(5-phenyl-(1,3,4)oxadiazol-2-ylmethyl)-pyrrolidin-1-yl)-methanone) binding, bottom denotes the nonspecific [^3H]-(1-(5-(2-fluoro-phenyl)-2-methyl-thiazol-4-yl)-1-((S)-2-(5-phenyl-(1,3,4)oxadiazol-2-ylmethyl)-pyrrolidin-1-yl)-methanone) binding. Graphpad Prism calculates Ki value from IC50 and the pre-determined Kd values for [^3H]-(1-(5-(2-fluoro-phenyl)-2-methyl-thiazol-4-yl)-1-((S)-2-(5-phenyl-(1,3,4)oxadiazol-2-ylmethyl)-pyrrolidin-1-yl)-methanone) and [3H]-EMPA. The Ki for each compound is then uploaded into 3DX. Each run comprises individual compounds in triplicate.
(§2) Rat and Human Orexin 1 Receptor Radioligand Binding Studies
Human Embryonic Kidney 293 cells (HEK293) stably expressing rat orexin 1 receptor (Genebank accession number NM_001525) or Chinese ovary cells (CHO) stably expressing human orexin 1 receptor (Genebank accession number NM_001526) were grown to confluency in DMEM (Hyclone, cat #SH30022), 10% FBS, 1×Pen/Strep, 1× sodium pyruvate, 10 mM HEPES, 600 μg/mL G418 and DMEM/F12 (Gibco, Cat #11039), 10% FBS, 1×Pen/Strep, 600 μg/mL G418 media, respectively on 150 cm^2 tissue culture plates, washed with 5 mM EDTA in PBS (HyClone Dulbecco's Phosphate Buffered Saline 1× with Calcium and Magnesium, Cat #SH30264.01, hereafter referred to simply as PBS) and scraped into 50 ml tubes. After centrifugation (2K×G, 5 min at 4° C.), the supernatant was aspirated and the pellets frozen and stored at −80° C. Cells were resuspended in PBS in the presence of 1 tablet of protease inhibitor cocktail (Roche, Cat. #11836145001) per 50 mL. Each cell pellet from a 15 cm plate was resuspended in 10 mL, stored on ice, and homogenized for 45 sec prior to addition to the reactions. Competition binding experiments in 96 well polypropylene plates were performed using [^3H]-(1-(5-(2-fluoro-phenyl)-2-methyl-thiazol-4-yl)-1-((S)-2-(5-phenyl-(1,3,4)oxadiazol-2-ylmethyl)-pyrrolidin-1-yl)-methanone) (Moraveck Corporation, specific activity=35.3 Ci/mmol), diluted to a 10 nM concentration in PBS (4 nM final). […] The final concentration of DMSO in the reactions is equal to or less than 0.1%. Total and nonspecific binding was determined in the absence and presence of 10 μM almorexant. The total volume of each reaction is 200 μL (20 μL of diluted compounds, 80 μL of [^3H]-(1-(5-(2-fluoro-phenyl)-2-methyl-thiazol-4-yl)-1-((S)-2-(5-phenyl-(1,3,4)oxadiazol-2-ylmethyl)-pyrrolidin-1-yl)-methanone) diluted in PBS and 100 μL of the cell suspension). Reactions were run for 60 min at room temperature and terminated by filtration through GF/C filter plates (PerkinElmer, Cat. #6005174) presoaked in 0.3% polyethylenimine using the cell harvester (PerkinElmer Filtermate). The plates were washed 3 times by aspirating 30 ml PBS through the plates. Plates were dried in 55° C. oven for 60 min, scintillation fluid was added, and the radioactivity was counted on a Topcount (Packard).

rat orexin 1 receptor = rat orexin 1 receptor (Rattus norvegicus, UniProt P56718); test: Rat orexin 1 receptor radioligand binding; conditions: rat orexin 1 receptor radioligand binding; averages of 2-20 runs; read-out: rOX1 Ki
Procedure: as §1, §2
After centrifugation (2K×G, 5 min at 4° C.), the supernatant was aspirated and the pellets frozen and stored at −80° C. […] Each cell pellet from a 15 cm plate was resuspended in 10 mL, stored on ice, and homogenized for 45 sec prior to addition to the reactions. Competition binding experiments in 96 well polypropylene plates were performed using [^3H]-(1-(5-(2-fluoro-phenyl)-2-methyl-thiazol-4-yl)-1-((S)-2-(5-phenyl-(1,3,4)oxadiazol-2-ylmethyl)-pyrrolidin-1-yl)-methanone) (Moraveck Corporation, specific activity=35.3 Ci/mmol), diluted to a 10 nM concentration in PBS (4 nM final). […] The final concentration of DMSO in the reactions is equal to or less than 0.1%. Total and nonspecific binding was determined in the absence and presence of 10 μM almorexant. The total volume of each reaction is 200 μL (20 μL of diluted compounds, 80 μL of [^3H]-(1-(5-(2-fluoro-phenyl)-2-methyl-thiazol-4-yl)-1-((S)-2-(5-phenyl-(1,3,4)oxadiazol-2-ylmethyl)-pyrrolidin-1-yl)-methanone) diluted in PBS and 100 μL of the cell suspension). […] The plates were washed 3 times by aspirating 30 ml PBS through the plates. Plates were dried in 55° C. oven for 60 min, scintillation fluid was added, and the radioactivity was counted on a Topcount (Packard).

human orexin 2 receptor = human orexin 2 receptor (Homo sapiens (Human), UniProt O43614); test: Human orexin 2 receptor radioligand binding ([3H]-EMPA); conditions: averages of 2-20 runs, read-out: hOX2 Ki
Procedure: as §1
Human Orexin 2 Receptor Radioligand Binding Studies
HEK293 stably expressing human orexin 2 receptor (Genebank accession number NM_001526) were grown to confluency in DMEM (Hyclone, cat #SH30022), 10% FBS, 1×Pen/Strep, 1× NaPyruvate, 10 mM HEPES, 600 ug/ml G418 media on 150 cm^2 tissue culture plates, washed with 5 mM EDTA in PBS (HyClone Dulbecco's Phosphate Buffered Saline 1× with Calcium and Magnesium, Cat #SH30264.01, hereafter referred to simply as PBS) and scraped into 50 ml tubes. After centrifugation (2K×G, 5 min at 4° C.), the supernatant was aspirated and the pellets frozen and stored at −80° C. […] Each cell pellet from a 15 cm plate was resuspended in 10 mL, stored on ice, and homogenized for 45 sec just prior to addition to the reactions. Competition binding experiments in 96 well polypropylene plates were performed using [^3H]-EMPA (Moraveck Corporation, specific activity=29.6 Ci/mmol), diluted to a 5 nM concentration in PBS (2 nM final concentration). […] The final concentration of DMSO in the reactions is equal to or less than 0.1%. Total and nonspecific binding was determined in the absence and presence of 10 μM almorexant. The total volume of each reaction is 200 μL (20 μL of diluted compounds, 80 μL of [^3H]-EMPA diluted in PBS and 100 μL of the cell suspension). […] The plates were washed 3 times by aspirating 30 ml PBS through the plates. Plates were dried in 55° C. oven for 60 min, scintillation fluid was added, and the radioactivity was counted on a Topcount (Packard).

Sequence of human orexin 2 receptor (O43614 whole entry): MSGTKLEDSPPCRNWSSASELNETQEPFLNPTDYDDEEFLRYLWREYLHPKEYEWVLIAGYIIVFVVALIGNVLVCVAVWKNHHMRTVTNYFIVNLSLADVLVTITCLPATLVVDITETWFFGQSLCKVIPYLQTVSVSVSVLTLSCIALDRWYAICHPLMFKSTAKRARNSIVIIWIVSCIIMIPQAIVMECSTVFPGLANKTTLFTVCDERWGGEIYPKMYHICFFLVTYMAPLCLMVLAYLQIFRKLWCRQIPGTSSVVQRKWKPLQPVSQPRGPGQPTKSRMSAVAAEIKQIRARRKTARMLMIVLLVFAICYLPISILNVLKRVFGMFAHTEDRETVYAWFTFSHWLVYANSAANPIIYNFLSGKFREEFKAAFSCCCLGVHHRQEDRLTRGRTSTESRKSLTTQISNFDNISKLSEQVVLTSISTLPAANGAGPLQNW

Row | Ki (human orexin 1 receptor) [nM] | Ki (rat orexin 1 receptor) [nM] | Ki (human orexin 2 receptor) [nM] | SMILES
1 | 39 | 20 | – | Cc1cnc(C(=O)N2CCC[C@@H](N(C)c3nc4ccccc4o3)[C@@H]2C)c(-n2nccn2)c1 (relative stereo) [Example 187, ((2S*,3R*)-3-(benzo[d]oxazol-2-yl(methyl)amino)-2-methylpiperidin-1-yl)(5-methyl-3-(2H-1,2,3-triazol-2-yl)pyridin-2-yl)methanone]
2 | 21 | 24 | – | Cc1ccc(C(=O)N2CCC[C@@H](Nc3ccc(C(F)(F)F)cn3)[C@@H]2C)c(-n2nccn2)n1 [Example 98, (6-methyl-2-(2H-1,2,3-triazol-2-yl)pyridin-3-yl)((2S,3R)-2-methyl-3-((5-(trifluoromethyl)pyridin-2-yl)amino)piperidin-1-yl)methanone]
3 | – | 423 | 8200 | C[C@H]1[C@H](Oc2cnc(C(F)(F)F)cn2)CCCN1C(=O)c1nccnc1-c1ccccc1 [Example 173, ((2S,3R)-2-methyl-3-((5-(trifluoromethyl)pyrazin-2-yl)oxy)piperidin-1-yl)(3-phenylpyrazin-2-yl)methanone]
4 | – | 447 | > 10000 | COc1ccc(C(=O)N2CCC[C@@H](Oc3cnc(C(F)(F)F)cn3)[C@@H]2C)c(-n2nccn2)c1 [Example 172, (4-methoxy-2-(2H-1,2,3-triazol-2-yl)phenyl)((2S,3R)-2-methyl-3-((5-(trifluoromethyl)pyrazin-2-yl)oxy)piperidin-1-yl)methanone]
5 | – | 411 | 5800 | C[C@H]1[C@H](Nc2ncc(C(F)(F)F)cn2)CCCN1C(=O)c1ccc(F)cc1-c1ncco1 (relative stereo) [Example 205, (4-fluoro-2-(oxazol-2-yl)phenyl)((2S*,3R*)-2-methyl-3-((5-(trifluoromethyl)pyrimidin-2-yl)amino)piperidin-1-yl)methanone]
6 | – | 679 | > 10000 | C[C@H]1[C@H](Oc2ncc(C(F)(F)F)cn2)CCCN1C(=O)c1nccnc1-c1ccccc1 [Example 178, ((2S,3R)-2-methyl-3-((5-(trifluoromethyl)pyrimidin-2-yl)oxy)piperidin-1-yl)(3-phenylpyrazin-2-yl)methanone]
7 | – | 3400 | > 10000 | C[C@H]1[C@H](Oc2cnc(C(F)(F)F)cn2)CCCN1C(=O)c1cccnc1-n1nccn1 [Example 148, (2-(2H-1,2,3-triazol-2-yl)pyridin-3-yl)((2S,3R)-2-methyl-3-((5-(trifluoromethyl)pyrazin-2-yl)oxy)piperidin-1-yl)methanone]
8 | – | 332 | 6600 | Cc1noc(-c2cc(F)ccc2C(=O)N2CCC[C@@H](Nc3ncc(C(F)(F)F)cn3)[C@@H]2C)n1 (relative stereo) [Example 197, (4-fluoro-2-(3-methyl-1,2,4-oxadiazol-5-yl)phenyl)((2S*,3R*)-2-methyl-3-((5-(trifluoromethyl)pyrimidin-2-yl)amino)piperidin-1-yl)methanone]
9 | – | 1100 | > 10000 | COc1ccc(C(=O)N2CCC[C@@H](Nc3ccc(C(F)(F)F)cn3)[C@@H]2C)c(Cl)n1 (relative stereo) [Example 193, (2-chloro-6-methoxypyridin-3-yl)((2S*,3R*)-2-methyl-3-((5-(trifluoromethyl)pyridin-2-yl)amino)piperidin-1-yl)methanone]
10 | – | 278 | 9400 | COc1ccc(C(=O)N2CCC[C@@H](Nc3cnc(Cl)cn3)[C@@H]2C)c(-n2nccn2)c1 (relative stereo) [Example 186, ((2S*,3R*)-3-((5-chloropyrazin-2-yl)amino)-2-methylpiperidin-1-yl)(4-methoxy-2-(2H-1,2,3-triazol-2-yl)phenyl)methanone]
11 | – | 259 | 8600 | COc1ccc(C(=O)N2CCC[C@@H](Nc3ncc(Cl)cn3)[C@@H]2C)c(-n2nccn2)c1 (relative stereo) [Example 185, ((2 S*,3R*)-3-((5-chloropyrimidin-2-yl)amino)-2-methylpiperidin-1-yl)(4-methoxy-2-(2H-1,2,3-triazol-2-yl)phenyl)methanone]
12 | – | > 10000 | > 10000 | COc1ccc(C(=O)N2CCC[C@@H](Nc3ncc(C(F)(F)F)cn3)[C@@H]2C)c(Cl)n1 (relative stereo) [Example 201, (2-chloro-6-methoxypyridin-3-yl)((2S*,3R*)-2-methyl-3-((5-(trifluoromethyl)pyrimidin-2-yl)amino)piperidin-1-yl)methanone]
13 | – | 374 | > 10000 | Cc1cnc(-n2nccn2)c(C(=O)N2CCC[C@@H](Oc3ncc(C(F)(F)F)cn3)[C@@H]2C)c1 [Example 176, (5-methyl-2-(2H-1,2,3-triazol-2-yl)pyridin-3-yl)((2S,3R)-2-methyl-3-((5-(trifluoromethyl)pyrimidin-2-yl)oxy)piperidin-1-yl)methanone]
